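Assay format: 96-well plates, 48-hour exposure. Abbreviation: GI50, concentration required for 50% inhibition of growth.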 Calls of active or inactive are those of the source. No stated cut-off is given here; in the data, active = GI50 up to about 1.1 µM and inactive = higher.
Key:
Experiment in all cases: NCI-60 cell line screen, 48 h
SW-620 = test system: SW-620
HOP-62 = test system: HOP-62
IGROV-1 = test system: IGROV-1
A549 = test system: A549
SK-MEL-28 = test system: SK-MEL-28
SR = test system: SR
NCI-H23 = test system: NCI-H23
HCT-15 = test system: HCT-15
HT-29 = test system: HT-29
HCC 2998 = test system: HCC 2998
ACHN = test system: ACHN
RPMI-8226 = test system: RPMI-8226
UACC-257 = test system: UACC-257
A498 = test system: A498
KM12 = test system: KM12
M19-MEL = test system: M19-MEL
SF-295 = test system: SF-295
UACC-62 = test system: UACC-62
SNB-75 = test system: SNB-75
CCRF-CEM = test system: CCRF-CEM
SNB-78 = test system: SNB-78
NCI-H226 = test system: NCI-H226
SF-539 = test system: SF-539
NCI-H460 = test system: NCI-H460
HCT-116 = test system: HCT-116
OVCAR-4 = test system: OVCAR-4
SNB-19 = test system: SNB-19
SK-MEL-5 = test system: SK-MEL-5
786-0 = test system: 786-0
SK-MEL-2 = test system: SK-MEL-2
UO-31 = test system: UO-31
EKVX = test system: EKVX
HL-60 = test system: HL-60
TK-10 = test system: TK-10
Malme-3M = test system: Malme-3M
DLD-1 = test system: DLD-1
U-251 = test system: U-251
CAKI-1 = test system: CAKI-1
XF498 = test system: XF498
K562 = test system: K562
KM-20L2 = test system: KM-20L2
SF-268 = test system: SF-268
MOLT-4 = test system: MOLT-4
SN12C = test system: SN12C
OVCAR-3 = test system: OVCAR-3
NCI-H522 = test system: NCI-H522
RXF 393 = test system: RXF 393
SK-OV-3 = test system: SK-OV-3
COLO 205 = test system: COLO 205
HOP-92 = test system: HOP-92
LXFL 529 = test system: LXFL 529
OVCAR-8 = test system: OVCAR-8
DMS-273 = test system: DMS-273
LOX IMVI = test system: LOX IMVI
DMS-114 = test system: DMS-114
M14 = test system: M14
HOP-18 = test system: HOP-18
OVCAR-5 = test system: OVCAR-5
RXF 631 = test system: RXF 631

SMILES: COc1cc(/C=C2\CCC(C)(CN(C)C)C2=O)cc(OC)c1OC (configuration not stated)
- GI50 (SW-620): > 100 µM (inactive)
- GI50 (HOP-62): > 100 µM (inactive)
- GI50 (IGROV-1): > 100 µM (inactive)
- GI50 (A549): > 100 µM (inactive)
- GI50 (SK-MEL-28): > 100 µM (inactive)
- GI50 (SR): 63.4 µM (inactive)
- GI50 (NCI-H23): > 100 µM (inactive)
- GI50 (HCT-15): > 100 µM
- GI50 (HT-29): > 100 µM (inactive)
- GI50 (HCC 2998): > 100 µM (inactive)
- GI50 (ACHN): > 100 µM (inactive)
- GI50 (RPMI-8226): 40.8 µM (inactive)
- GI50 (UACC-257): > 100 µM (inactive)
- GI50 (A498): > 100 µM (inactive)
- GI50 (KM12): > 100 µM (inactive)
- GI50 (M19-MEL): > 100 µM (inactive)
- GI50 (SF-295): > 100 µM (inactive)
- GI50 (UACC-62): 70.5 µM (inactive)
- GI50 (SNB-75): > 100 µM (inactive)
- GI50 (CCRF-CEM): 52.4 µM (inactive)
- GI50 (SNB-78): > 44.7 µM (inactive)
- GI50 (NCI-H226): > 100 µM (inactive)
- GI50 (SF-539): > 100 µM (inactive)
- GI50 (NCI-H460): > 100 µM (inactive)
- GI50 (HCT-116): > 79.3 µM (inactive)
- GI50 (OVCAR-4): > 100 µM (inactive)
- GI50 (SNB-19): > 100 µM (inactive)
- GI50 (SK-MEL-5): > 93.3 µM (inactive)
- GI50 (786-0): > 100 µM (inactive)
- GI50 (SK-MEL-2): > 100 µM (inactive)
- GI50 (UO-31): > 100 µM (inactive)
- GI50 (EKVX): > 58.3 µM (inactive)
- GI50 (HL-60): 1.57 µM (inactive)
- GI50 (TK-10): > 100 µM (inactive)
- GI50 (Malme-3M): > 100 µM (inactive)
- GI50 (DLD-1): > 89.1 µM (inactive)
- GI50 (U-251): > 100 µM (inactive)
- GI50 (CAKI-1): > 100 µM (inactive)
- GI50 (XF498): > 100 µM (inactive)
- GI50 (K562): 63.7 µM (inactive)
- GI50 (KM-20L2): > 64.9 µM (inactive)
- GI50 (SF-268): > 100 µM (inactive)
- GI50 (MOLT-4): > 83.6 µM (inactive)
- GI50 (SN12C): > 100 µM (inactive)
- GI50 (OVCAR-3): > 100 µM (inactive)
- GI50 (NCI-H522): 50.7 µM (inactive)
- GI50 (RXF 393): > 100 µM (inactive)
- GI50 (SK-OV-3): > 100 µM (inactive)
- GI50 (COLO 205): > 100 µM (inactive)
- GI50 (HOP-92): > 100 µM (inactive)
- GI50 (LXFL 529): > 100 µM (inactive)
- GI50 (OVCAR-8): > 100 µM (inactive)
- GI50 (DMS-273): > 100 µM (inactive)
- GI50 (LOX IMVI): > 100 µM (inactive)
- GI50 (DMS-114): 99.5 µM (inactive)
- GI50 (M14): > 100 µM (inactive)
- GI50 (HOP-18): > 100 µM (inactive)
- GI50 (OVCAR-5): > 100 µM (inactive)

SMILES: CCOC(=O)N1CCc2cc(OC)c(OC)cc2/C1=C\c1ccc(OC)c(OC)c1
- GI50 (SW-620): 32.7 µM (inactive)
- GI50 (HOP-62): 41.6 µM (inactive)
- GI50 (IGROV-1): 45.5 µM (inactive)
- GI50 (A549): 26.8 µM (inactive)
- GI50 (SK-MEL-28): 33.3 µM (inactive)
- GI50 (SR): 29.1 µM (inactive)
- GI50 (NCI-H23): 39 µM (inactive)
- GI50 (HCT-15): 31 µM
- GI50 (HT-29): 19 µM (inactive)
- GI50 (HCC 2998): 33.3 µM (inactive)
- GI50 (ACHN): 26.3 µM (inactive)
- GI50 (RPMI-8226): 24.4 µM (inactive)
- GI50 (UACC-257): 23.6 µM (inactive)
- GI50 (A498): 23.2 µM (inactive)
- GI50 (KM12): 29.6 µM (inactive)
- GI50 (M19-MEL): 26.1 µM (inactive)
- GI50 (SF-295): 22.9 µM (inactive)
- GI50 (UACC-62): 22.9 µM (inactive)
- GI50 (SNB-75): 27 µM (inactive)
- GI50 (CCRF-CEM): 20.7 µM (inactive)
- GI50 (SNB-78): 35.7 µM (inactive)
- GI50 (NCI-H226): 23.4 µM (inactive)
- GI50 (SF-539): 23.2 µM (inactive)
- GI50 (HCT-116): 21.9 µM (inactive)
- GI50 (SNB-19): 39.2 µM (inactive)
- GI50 (786-0): 19.9 µM (inactive)
- GI50 (SK-MEL-2): 12.1 µM (inactive)
- GI50 (UO-31): 21 µM (inactive)
- GI50 (EKVX): 28.1 µM (inactive)
- GI50 (HL-60): 19.5 µM (inactive)
- GI50 (TK-10): 25.2 µM (inactive)
- GI50 (Malme-3M): 20.2 µM (inactive)
- GI50 (DLD-1): 37 µM (inactive)
- GI50 (U-251): 30.3 µM (inactive)
- GI50 (XF498): > 10 µM (inactive)
- GI50 (K562): > 10 µM (inactive)
- GI50 (KM-20L2): 21.2 µM (inactive)
- GI50 (SF-268): 37.8 µM (inactive)
- GI50 (MOLT-4): 27.7 µM (inactive)
- GI50 (SN12C): 26.4 µM (inactive)
- GI50 (OVCAR-3): 26 µM (inactive)
- GI50 (NCI-H522): 25 µM (inactive)
- GI50 (RXF 393): 17.1 µM (inactive)
- GI50 (SK-OV-3): 54 µM (inactive)
- GI50 (COLO 205): 21.6 µM (inactive)
- GI50 (HOP-92): 15.8 µM (inactive)
- GI50 (LXFL 529): 29.5 µM (inactive)
- GI50 (OVCAR-8): 30.1 µM (inactive)
- GI50 (DMS-273): 25.5 µM (inactive)
- GI50 (LOX IMVI): 18.8 µM (inactive)
- GI50 (DMS-114): 35.3 µM (inactive)
- GI50 (M14): > 10 µM (inactive)
- GI50 (HOP-18): 29.5 µM (inactive)
- GI50 (OVCAR-5): 38.3 µM (inactive)

SMILES: O=C(/C=C/c1ccc(O)cc1)OC[C@@H](O)COC1OC(CO)C(O)C(O)C1O (some centres not stated)
- GI50 (HOP-62): > 100 µM (inactive)
- GI50 (IGROV-1): > 100 µM (inactive)
- GI50 (A549): > 100 µM (inactive)
- GI50 (SK-MEL-28): > 100 µM (inactive)
- GI50 (SR): > 100 µM (inactive)
- GI50 (NCI-H23): > 100 µM (inactive)
- GI50 (HT-29): > 100 µM (inactive)
- GI50 (ACHN): > 100 µM (inactive)
- GI50 (UACC-257): > 100 µM (inactive)
- GI50 (A498): > 100 µM (inactive)
- GI50 (KM12): > 100 µM (inactive)
- GI50 (M19-MEL): > 100 µM (inactive)
- GI50 (SF-295): > 100 µM (inactive)
- GI50 (CCRF-CEM): > 100 µM (inactive)
- GI50 (SNB-78): > 100 µM (inactive)
- GI50 (NCI-H226): 94.2 µM (inactive)
- GI50 (NCI-H460): > 100 µM (inactive)
- GI50 (HCT-116): > 100 µM (inactive)
- GI50 (SNB-19): > 100 µM (inactive)
- GI50 (UO-31): > 100 µM (inactive)
- GI50 (EKVX): > 100 µM (inactive)
- GI50 (HL-60): > 100 µM (inactive)
- GI50 (TK-10): > 100 µM (inactive)
- GI50 (U-251): > 100 µM (inactive)
- GI50 (K562): > 100 µM (inactive)
- GI50 (MOLT-4): > 100 µM (inactive)
- GI50 (NCI-H522): > 100 µM (inactive)
- GI50 (RXF 393): > 100 µM (inactive)
- GI50 (SK-OV-3): > 100 µM (inactive)
- GI50 (HOP-92): > 100 µM (inactive)
- GI50 (OVCAR-8): > 100 µM (inactive)
- GI50 (DMS-114): > 100 µM (inactive)
- GI50 (M14): > 100 µM (inactive)
- GI50 (OVCAR-5): > 100 µM (inactive)
- GI50 (RXF 631): > 100 µM (inactive)

From ChEMBL document CHEMBL1201862, “PubChem BioAssay data set” (2004)
